Results as given in US11318157B2, “6-6 bicyclic aromatic ring substituted nucleoside analogues for use as PRMT5 inhibitors” (Janssen Pharmaceutica NV, priority 2015, dated 2022).

Key:
PRMT5-MEP50 enzyme [1] = target: T1, PRMT5-MEP50 enzyme (Homo sapiens, UniProt O14744); test: In vitro assay 1a: high throughput mass spectrometer assay of SAH formation, 10 nM enzyme, 60 min; type: biochemical; settings: averaged values, PRMT5-MEP50, 10 nM enzyme, read-out: pIC50 Assay 1a (converted)
T1 construct: One virus expresses full length human PRMT5 with Flag-tag at N-terminus; Flag (N); purchased Charles River (Argenta); host or cells: insect cells (Sf9), baculovirus co-infection
Excerpt: Experimental Procedures In Vitro Assay (Assay 1a and 1b)
PRMT5-MEP50 enzyme was purchased from Charles River (Argenta). The enzyme complex was produced in insect cells (Sf9) infected simultaneously with two baculoviruses. One virus expresses full length human PRMT5 with Flag-tag at N-terminus, the second virus expresses full length MEP50 with His6-TEV cleavage at N-terminus. The protein was affinity purified using anti-Flag (M2) beads eluted with 3×FLAG peptide, followed by His-Select eluted with 0.5M imidazole. Eluted protein was then dialysed against tris-buffered saline (TBS) (pH 8.0) containing 20% glycerol and 3 mM dithiothreitol (DTT).
Full-length untagged human recombinant histone H2A (residues 1-130, Genbank Accession #NM_021052 MW=14.1 kDa) expressed in E. coli was purchased from Reaction Biology Corporation, Cat #HMT-11-146. Reagents used for making reaction buffer or stopping reaction were purchased including Tris base (Sigma Cat #T-1503), NaCl (Sigma Cat #RGF-3270), MgCl2 (Sigma Cat #M0250), DTTI (Invitrogen Cat #15508-013) and Formic Acid (Riedel deHaen, Cat #33015)
High Throughput Mass Spectrometer Assay
PRMT5 catalyzes the sequential methylations of the terminal nitrogen atoms on the guanidine groups of arginine residues within proteins using co-substrate S-adenosyl-L-methionine (AdoMet, SAM), forming mono-methyl (MMA), symmetric-dimethyl arginine (sDMA) and S-adenosyl-L-homocysteine (AdoHcy, SAH). The enzyme activity was determined by following the product SAH formation using high throughput mass spectrometry (Agilent Rapidfire 300 System coupled to a Sciex 4000 series QTrap® triple-quad MS/MS). The reaction buffer was 20 mM Tris-HCl, pH 8.5, 50 mM NaCl, 5 mM MgCl2 and 1 mM DTT. The reaction activity was stopped using 1% formic acid (final concentration).
The IC50 Studies were performed using eleven point dosing series made for each compound by serially diluted 1:2 in dimethyl sulfoxide (DMSO), with point 12 being a DMSO control. Compounds were first spotted to plates, and followed by addition of 2 μM SAM and 0.6 μM H2A (histone H2A) solution mixture. The same volume of enzyme solution was added to initiate the enzymatic reactions. The final concentrations of the reaction are at 1 μM SAM, 0.3 μM H2A and 10 nM enzyme (assay 1a) or 1.25 nM enzyme (assay 1b). The reaction was incubated at 30° C. for 60 minutes (min) when 10 nM enzyme was used and for 120 min when 1.25 nM enzyme was used. Subsequently, the reaction was quenched by addition of formic acid to a final concentration of 1%. The inhibitions of SAH formation in the presence of compounds were calculated as a percentage of the control relative to the uninhibited reaction as a function of inhibitor concentration. The data were fit as follows: Y=Bottom+(Top−Bottom)/(1+10^((log IC50−X)*h))
where IC50 is the inhibitor concentration (same unit as X) at 50% inhibition and h is the Hill slope. Y is percent of inhibition, X is log of compound concentration. Bottom and Top are the plateaus in same units as Y.

PRMT5-MEP50 enzyme [2] = target: T1, PRMT5-MEP50 enzyme; test: In vitro assay 1b: high throughput mass spectrometer assay of SAH formation, 1.25 nM enzyme, 120 min; type: biochemical; settings: averaged values; PRMT5-MEP50, 1.25 nM enzyme, 120 min; read-out: pIC50 Assay 1b (converted)
Procedure, shortened: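 SAH product measured by RapidFire mass spectrometry after formic acid stop; IC50 from 11-point 1:2 dilutions, four-parameter fit. Reactions at 30 °C in 20 mM Tris pH 8.5 with 1 μM SAM, 0.3 μM H2A: assay 1a 10 nM PRMT5-MEP50, 60 min; assay 1b 1.25 nM, 120 min.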

[3] = test system: nuclear symmetric Arginine dimethylation in A549 cells; test: PD assay (assay 2): inhibition of nuclear symmetric Arginine dimethylation (SYM10 immunohistochemistry), 48 h; type: cell-based; settings: Homo sapiens, A549, averaged values; PD assay, A549 cells, symmetric Arginine dimethylation; read-out: pIC50 Assay 2 (converted)
Procedure, shortened: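 Cells seeded at 400/well overnight, then treated 48 h at 37 °C, final DMSO 0.2%. Fixed and stained with SYM10 antibody plus Alexa 488 secondary, Hoechst and CellMask, then imaged on Opera. Normalized to DMSO (high) and 10 μM reference compound (low); averaged pIC50 reported.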

T1 sequence (O14744 whole entry): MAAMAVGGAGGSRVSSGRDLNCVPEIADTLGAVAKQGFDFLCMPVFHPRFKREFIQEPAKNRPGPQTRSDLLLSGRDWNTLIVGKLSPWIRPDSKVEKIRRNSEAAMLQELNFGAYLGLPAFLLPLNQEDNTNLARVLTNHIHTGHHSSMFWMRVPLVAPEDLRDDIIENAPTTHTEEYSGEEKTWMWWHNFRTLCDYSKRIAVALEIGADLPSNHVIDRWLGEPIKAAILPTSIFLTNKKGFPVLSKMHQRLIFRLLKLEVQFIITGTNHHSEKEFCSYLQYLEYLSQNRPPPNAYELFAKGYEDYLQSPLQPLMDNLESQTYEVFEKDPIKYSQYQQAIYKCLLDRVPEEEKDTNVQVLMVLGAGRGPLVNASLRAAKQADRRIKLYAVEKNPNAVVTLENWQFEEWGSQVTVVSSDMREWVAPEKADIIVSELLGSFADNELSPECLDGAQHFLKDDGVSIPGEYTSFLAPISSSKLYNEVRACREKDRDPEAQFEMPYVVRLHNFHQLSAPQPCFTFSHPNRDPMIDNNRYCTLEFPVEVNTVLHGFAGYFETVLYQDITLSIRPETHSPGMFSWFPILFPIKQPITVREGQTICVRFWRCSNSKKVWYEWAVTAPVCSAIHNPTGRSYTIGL
T1 sequence (Q9BQA1 whole entry partner): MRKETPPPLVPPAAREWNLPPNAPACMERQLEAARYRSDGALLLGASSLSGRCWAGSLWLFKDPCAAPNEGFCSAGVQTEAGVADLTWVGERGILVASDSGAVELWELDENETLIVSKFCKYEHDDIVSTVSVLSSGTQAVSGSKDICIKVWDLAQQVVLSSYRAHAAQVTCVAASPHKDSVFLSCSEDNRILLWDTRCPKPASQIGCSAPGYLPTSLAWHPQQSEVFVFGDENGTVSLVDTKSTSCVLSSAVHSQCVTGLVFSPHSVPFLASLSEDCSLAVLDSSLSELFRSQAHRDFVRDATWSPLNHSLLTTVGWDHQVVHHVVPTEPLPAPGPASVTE

SMILES	IC50 (PRMT5-MEP50 enzyme [1]) [nM]	IC50 (PRMT5-MEP50 enzyme [2]) [nM]	IC50 [3] [nM]
O[C@@H]1[C@H](O)[C@@H](COc2ccc3c(Cl)ccnc3c2)O[C@H]1n1ccc2c(Cl)ncnc21 [Compound 34]	7940	> 100000	> 20000
Nc1ncnc2c1ccn2[C@@H]1O[C@H](COc2ccc3ccc(C(F)(F)F)nc3c2)[C@@H](O)[C@H]1O [Compound 22]	6310	25100	~17800
CN(C[C@H]1O[C@@H](n2ccc3c(Cl)ncnc32)[C@H](O)[C@@H]1O)c1ccc2cc(Br)cnc2c1 [Compound 86]	2510	1000	5010
Cc1cn([C@@H]2O[C@H](COc3ccc4cccnc4c3)[C@@H](O)[C@H]2O)c2ncnc(N)c12 [Compound 82]	200	501	1260
Nc1ncnc2c1ccn2[C@@H]1O[C@H](COc2ccc3cc(Br)cnc3c2)[C@@H](O)[C@H]1O [Compound 2]	7.94	25.1	39.8
Nc1ncnc2c1ncn2[C@@H]1O[C@H](COc2ccc3cc(Br)cnc3c2)[C@@H](O)[C@H]1O [Compound 220]	316	501	2510
CCc1cnc2cc(OC[C@H]3O[C@@H](n4ccc5c(N)ncnc54)[C@H](O)[C@@H]3O)ccc2c1 [Compound 213]	7.94	15.8	63.1
Nc1ncnc2c1ccn2[C@@H]1O[C@H](COc2ccc3ncccc3c2)[C@@H](O)[C@H]1O [Compound 11]	3160	7940	> 10000
N#Cc1cnc2cc(OC[C@H]3O[C@@H](n4ccc5c(N)ncnc54)[C@H](O)[C@@H]3O)ccc2c1N [Compound 29]	501	1260	15800
Nc1ncnc2c1ccn2[C@@H]1C[C@H](CCc2ccc3cc(Cl)c(NCC4CC4)nc3c2)[C@@H](O)[C@H]1O [Compound 147]	251	251	31.6
O[C@@H]1[C@H](O)[C@@H](CCc2ccc3ccc(NCC4CC4)nc3c2)O[C@H]1n1ccc2cncnc21 [Compound 168]	3.98	50.1	126
Nc1ncnc2c1ccn2[C@@H]1O[C@H](COc2ccc3cc(Cl)cnc3c2Cl)[C@@H](O)[C@H]1O [Compound 101]	1000	794	2000
O[C@@H]1[C@H](O)[C@@H](COc2ccc3ccc(NCC4CC4)nc3c2)O[C@H]1n1ccc2cncnc21 [Compound 170]	6.31	63.1	79.4
CC(C)c1cnc2cc(OC[C@H]3O[C@@H](n4ccc5c(N)ncnc54)[C@H](O)[C@@H]3O)ccc2c1 [Compound 214]	31.6	100	398
Nc1ncnn2c([C@@H]3O[C@H](CCc4ccc5cccnc5c4)[C@@H](O)[C@H]3O)ccc12 [Compound 62]	631	794	1580
Nc1ncnc2c1ccn2[C@@H]1O[C@H](CCc2ccc3cc(Br)cnc3c2)[C@@H](O)[C@H]1O [Compound 111]	12.6	39.8	63.1
O[C@@H]1[C@@H](CCc2ccc3ccc(NCc4ccccc4)nc3c2)C[C@@H](n2ccc3cncnc32)[C@@H]1O [Compound 172]	0.501	3.98	< 1.17
NC(=O)c1ccc2ccc(OC[C@H]3O[C@@H](n4ccc5c(N)ncnc54)[C@H](O)[C@@H]3O)cc2n1 [Compound 245]	2000	3160	> 20000
